Measurements: PMC3009975, “Blocking spinal CCR2 with AZ889 reversed hyperalgesia in a model of neuropathic pain” (Molecular Pain, 2010)
“Also recorded” adds a separate entry of the source. Like-named read-outs stand apart in the source and are kept apart here.

Key:
CCI rats = experiment: Thermal (heat) hyperalgesia (paw withdrawal latency) in CCI neuropathic rats; type: in vivo, rat; conditions: p.o., tested 1 h after dosing
From the text: Chronic nerve constriction injury (CCI) was induced as described previously [38] in male Sprague-Dawley rats weighing 125-150 g at the time of surgery. Briefly, under isoflurane anaesthesia, a small incision was made 0.5 cm below the pelvis, and the biceps femoris and the gluteus superficialis (left side) were separated. The sciatic nerve was exposed, isolated, and four loose ligatures (4-0 chromic gut) with 1 mm spacing were placed around it. The nerve was placed back in its natural position and the incision sealed with tissue adhesive (VetbondTM). The animals were allowed to recover for 7-10 days before conducting any behavioural testing. Animals that were not gaining weight or were showing clinical signs of distress (e.g. paralysis, self-mutilation, extensive alopecia) were not included in this study.
Animals were brought to the laboratory 24 h prior to behavioural testing for acclimatization. […] Paw withdrawal latencies were calculated as the mean of two trials conducted with 5 min intervals between measures.
CCI rats and their corresponding naïve controls were used throughout this study. […] In order to assess behavioural pathology, baseline hyperalgesia was determined 1-2 days before pharmacological testing. […] The percentage of anti-hyperalgesia for each rat was calculated according to the following equation: % anti-hyperalgesia = [(value-vehicle)/(naïve-vehicle)]*100.

rats = experiment: Side effects during behavioural studies (locomotor activity assay, muscle tone, overt signs); type: in vivo, rat; conditions: highest dose (pregabalin 100 mg/kg p.o.); data not shown
[1] = tested on: DRG neurons from CCI rats; experiment: Calcium imaging of cultured DRG neurons from CCI rats; type: cell-based, rat; conditions: 1 μM, before (5 min), during and after 100 nM CCL2; n = 6 cells
Experimental: Since rCCL2 can activate both CCR2 and CCR5 [25] we used AZ889 to test if a selective CCR2 antagonist can prevent CCL2-induced calcium signalling in native tissue.
Ganglia from L4 to L6 dorsal roots were harvested from CCI animals, 4 to 19 days post-surgery. The tissue was enzymatically digested at 37°C for 90 min with collagenase-A (2 mg/mL) and papain (1 mg/mL) in DMEM. Cells were plated on Poly-D-Lysine coated coverslips and maintained in F12 supplemented with 10% heat inactivated horse serum, 2 mM glutamine-penicillin-streptomycin, and 2 ng/ml NGF and GDNF for 1-3 days in a humidified chamber (5% CO2/95% O2).

rat CCR2 receptor = molecular target: T1, rat CCR2 receptor (Rattus norvegicus, UniProt O55193); experiment: Calcium flux assay (FLIPR) in HEK293 s cells (Gαqi5) stably expressing rat CCR2; type: cell-based; conditions: read-out: EC50, calcium activation of HEK293 s cells expressing CCR2
T1 construct: expressed in transfected cells; host or cells: HEK293s cells co-expressing chimeric Gαqi5
T1 sequence (O55193 1-373): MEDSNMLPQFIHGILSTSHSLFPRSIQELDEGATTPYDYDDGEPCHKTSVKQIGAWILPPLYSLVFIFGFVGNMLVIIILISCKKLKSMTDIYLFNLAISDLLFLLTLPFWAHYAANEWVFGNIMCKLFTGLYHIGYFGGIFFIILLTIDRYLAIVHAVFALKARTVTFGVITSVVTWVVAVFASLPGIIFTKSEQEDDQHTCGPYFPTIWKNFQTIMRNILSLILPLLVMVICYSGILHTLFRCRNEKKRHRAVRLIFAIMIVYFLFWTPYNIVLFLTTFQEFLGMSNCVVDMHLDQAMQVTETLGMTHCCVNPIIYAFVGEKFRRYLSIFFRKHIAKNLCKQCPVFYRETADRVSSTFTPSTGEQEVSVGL
From the text: Chemokine receptors are known to modulate intracellular calcium concentration. A library of designed molecules was screened on HEK cells expressing the receptor using a calcium flux-assay (FLIPR). Compounds capable of blocking the intracellular calcium rise evoked by mouse CCL2 in HEK293 s cells (Gαqi5) stably expressing the rat CCR2 receptor were selected and further profiled by performing dose-response curves. Mouse and rat CCL2 (mCCL2 and rCCL2) purchased from R&D Systems gave similar median effective concentrations (EC50) values (Additional file 1 Figure S1) and mCCL2 was selected to conduct the screening assay. Cells were pre-incubated (30 min) with a given concentration of compound (from 0.04 to 1 μM) and CCR2 calcium-mediated activation was evoked by the addition of mCCL2 (EC50 concentration, 1 nM).
Briefly, HEK293 s cells stably expressing rat CCR2 and the chimeric Gαqi5 were plated (15000 cells per well) in 384-well assay plates in Dulbecco's modified Eagle's medium (DMEM) for 24 h in a humidified atmosphere at 37°C in 5% CO2. After removing the medium by inversion, cells were loaded with the calcium-sensitive dye Fluo4-AM (Molecular Devices), 15 μL per well of 4 μM FLUO-4/Pluronic acid mix (1 mM) in buffer and incubated at 37°C for 1 h in a humidified chamber (5% CO2/95% air). Cells were washed 4 times in Hanks' balanced salt solution buffer supplemented with 20 mM HEPES + 0.25% bovine serum albumin at pH 7.4. Different concentrations of the test compound (from 10 mM stock in dimethyl sulfoxide) were added in buffer for 30 min at 37°C in 5% CO2. In this assay, mouse CCL2 was added at 1 nM in buffer (EC50 value in Figure 1) and mobilization of intracellular calcium was measured online (FLIPR, Molecular Devices). The EC50 and IC50 values were determined using 8-point concentration-response curve using non-linear regression and a four-parameter logistic model (Prism 4.03 software, GraphPad Software Inc).

[2] = tested on: DRG neurons from CCI rats; experiment: Whole-cell patch clamp, evoked action potential firing in DRG neurons from CCI rats; type: cell-based, rat
Experimental: To assess whether DRG neurons from rats with chronic constriction injury (CCI) were also CCL2-sensitive, we performed whole-cell patch clamp recordings to evaluate the effect of the chemokine on cell excitability. A suprathreshold (500 ms) depolarizing current step was used to evoke a stable baseline of action potentials (Figure 2A) in the absence or presence of locally applied CCL2 (1min) onto the recorded cell.
Ganglia from L4 to L6 dorsal roots were harvested from CCI animals, 4 to 19 days post-surgery. The tissue was enzymatically digested at 37°C for 90 min with collagenase-A (2 mg/mL) and papain (1 mg/mL) in DMEM. […]
DRG cells maintained for 1-3 days in culture were transferred to a recording chamber fixed to the stage of an inverted microscope (Olympus) and constantly perfused (0.5 mL/min) with Dulbecco's phosphate buffered saline (PBS), a standard extracellular bathing solution containing (in mM): 137 NaCl; 8.1 Na2HPO4•7H2O; 2.68 KCl; 1.47 KH2PO4; 0.9 CaCl2; 0.5 MgCl2•6H2O at pH 7 and 275 to 290 mOsm. […] Signals were filtered at 1 kHz, digitized at 10 kHz (Digidata, Molecular Devices) and captured and analyzed off-line (Pclamp9 software, Molecular Devices). Action potentials were recorded with borosilicate glass patch pipettes (2-6 MΩ) filled with solution containing (in mM): 110 K-gluconate, 20 KCl, 10 EGTA, 8 NaCl, 10 HEPES, 1 MgCl2 and 4 Mg-ATP at pH 7.3. […]

[3] = tested on: non-neuronal cells in spinal cord slices from CCI rats; experiment: Calcium imaging of non-neuronal cells in spinal cord slices from CCI rats; type: cell-based, rat; conditions: bath application of 50 nM CCL2; n = 4
Experimental: (§1) To evaluate this we used spinal cord slices from CCI rats and evaluated if neuronal and non-neuronal cell types were sensitive to CCL2. For these recordings, calcium imaging acquisition was focused on lamina I of the dorsal horn. […] In this region, non-neuronal cells included astrocytes, microglia and other types of glial cells.
(§2) Spinal cord slices from L4 to L6 region were prepared from CCI animals, 4 to 19 days post-surgery, following guidelines by Wan and colleagues. In order to prevent excess bleeding, 20 uL of Xylocaine was injected intramuscularly at several sites on both sides of the spinal cord. Under deep anaesthesia a laminectomy (T11 to L5) was performed. Once exposed, the spinal cord was isolated and submerged in oxygenated ice-cold solution containing (in mM): 250 sucrose, 5 KCl, 2 MgSO4, 1.25 NaH2PO4, 26 NaHCO3 and 10 glucose.

[4] = tested on: DRG cells harvested from naive rats; experiment: Calcium imaging of DRG cells harvested from naive rats; type: cell-based, rat; conditions: data not shown
From the text: An increased number of action potentials in DRG neurons following CCR2 activation is an intriguing observation since CCR2 is a pertussis toxin (PTX)-sensitive GPCR coupled to inhibitory Gi and/or […]. Additionally, CCR2 activation evokes excitatory Ca^2+ rises in DRG cells but the underlying mechanism is still poorly understood. To gain further insight into CCR2-mediated Ca^2+ mobilization, we next evaluated the sensitivity of both neuronal and non-neuronal cell types in the DRG by recording changes in intracellular calcium evoked by CCL2. […] In mixed-cell cultures from CCI rats, CCL2 evoked an intracellular calcium rise in both neuronal and non-neuronal DRG cells (Figure 3A-C). Non-neuronal cells, satellite cells or microglia, were easily distinguished from neurons by their size, morphology and absence of dendritic processes (Figure 3A).
Cells and spinal cord slices were loaded with Fluo4-AM (4 μM, 30 min) in an oxygenated chamber (5% CO2/95% O2). DRG cells and spinal cord slices were washed in PBS and ACSF respectively and placed in a chamber mounted on the stage of a fluorescent microscope (Olympus). […] For each time-lapse image, the fluorescence intensity (F) was averaged over the soma area. Changes in fluorescence (ΔF) were measured as relative changes from baseline fluorescence (F0) and expressed as: […]

[5] = tested on: neuronal cells in spinal cord slices from CCI rats; experiment: Calcium imaging of neurons in spinal cord slices from CCI rats; type: cell-based, rat; conditions: bath application of 50 nM CCL2; n = 5
Experimental: as §1, §2

[6] = Additional file 1 Figure S1, average of 3 independent experiments

For `CC(C)C[C@H](CN)CC(=O)O` [Pregabalin], the “potency in reducing heat hyperalgesia, fold lower than AZ889” value (CCI rats) was 10 fold and the muscle tone (rats) was “clear decrease in muscle tone”.

With `COc1ccc2c(c1)CC[C@@H]1[C@@H]2CC[C@]2(C)[C@@H](NCCCCCCN3C(=O)C=CC3=O)CC[C@@H]12` [U73122] the “effect on CCL2-evoked calcium mobilization in DRG neurons” value [1] was “significant block of the calcium rise peak; also recorded: significantly blocked”.

Work on “mCCL2: mouse CC chemokine ligand 2 (monocyte chemoattractant protein-1), CCR2 agonist, purchased from R&D Systems” yielded an EC50 (rat CCR2 receptor; [6]) of 0.5 nM and an EC50 (rat CCR2 receptor; Figure 1A) of 1 nM.

“rCCL2: rat CC chemokine ligand 2 (monocyte chemoattractant protein-1), CCR2 agonist, purchased from R&D Systems” was tested, and the “increase in evoked firing compared to vehicle” value ([2]; CCL2 10 nM, local application 1 min, n = 3) was 29 ± 9%, the “increase in evoked firing (facilitated neuronal firing)” value ([2]; rCCL2 100 nM, n = 6) was 46 ± 13% and the “calcium response in non-neuronal cells” value [3] was 57.8 ± 42.3%. For the same molecule, the “calcium response in DRG cells from naive rats” value [4] was “did not evoke any response”, the “mean calcium rise peak in neurons” value [5] was 142.5 ± 87.8% and the EC50 (rat CCR2 receptor; [6]) was 0.8 nM.
